Results from the supplement of paper PMC8149375.

How the values were obtained:
Conditions in all cases: treatment: drug alone; 5 days
TK-10 [1] = assay: AUC of dose-response viability curve, drug alone (arbitrary (AUC of normalised viability)); higher = less growth inhibition
Protocol: (§1)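 Primary HTS: 8 RCC cell lines treated with 8 doses (up to 10 uM) of each library drug alone for 5 days; viability read by CellTiter-Glo and normalised to DMSO. GI50 was fitted with XLfit (4-parameter), AUC is the area under the dose-response curve, and minimum viability is the lowest fraction of DMSO viability across doses.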

ACHN [2] = assay: as above
Protocol: as §1

SN12C [3] = assay: as above
Protocol: as §1

A498 [4] = assay: as above
Protocol: as §1

786-O [5] = assay: as above
Protocol: as §1

769-P [6] = assay: as above
Protocol: as §1

UO-31 [7] = assay: as above
Protocol: as §1

CAKI-1 [8] = assay: as above
Protocol: as §1

TK-10 [9] = assay: minimum viability across doses, drug alone, relative to DMSO (fraction); higher = less growth inhibition
Protocol: as §1

ACHN [10] = assay: as above
Protocol: as §1

SN12C [11] = assay: as above
Protocol: as §1

A498 [12] = assay: as above
Protocol: as §1

786-O [13] = assay: as above
Protocol: as §1

769-P [14] = assay: as above
Protocol: as §1

UO-31 [15] = assay: as above
Protocol: as §1

CAKI-1 [16] = assay: as above
Protocol: as §1

TK-10 [17] = assay: GI50, drug alone; higher = less potent
Protocol: as §1

ACHN [18] = assay: GI50, drug alone; higher = less potent
Protocol: as §1

SN12C [19] = assay: GI50, drug alone; higher = less potent
Protocol: as §1

A498 [20] = assay: GI50, drug alone; higher = less potent
Protocol: as §1

786-O [21] = assay: GI50, drug alone; higher = less potent
Protocol: as §1

769-P [22] = assay: GI50, drug alone; higher = less potent
Protocol: as §1

UO-31 [23] = assay: GI50, drug alone; higher = less potent
Protocol: as §1

CAKI-1 [24] = assay: GI50, drug alone; higher = less potent
Protocol: as §1

Compound	AUC of dose-response viability curve (TK-10 [1])	AUC of dose-response viability curve (ACHN [2])	AUC of dose-response viability curve (SN12C [3])	AUC of dose-response viability curve (A498 [4])	AUC of dose-response viability curve (786-O [5])	AUC of dose-response viability curve (769-P [6])	AUC of dose-response viability curve (UO-31 [7])	AUC of dose-response viability curve (CAKI-1 [8])	minimum viability across doses (TK-10 [9])	minimum viability across doses (ACHN [10])	minimum viability across doses (SN12C [11])	minimum viability across doses (A498 [12])	minimum viability across doses (786-O [13])	minimum viability across doses (769-P [14])	minimum viability across doses (UO-31 [15])	minimum viability across doses (CAKI-1 [16])	GI50, drug alone (TK-10 [17]) [nM]	GI50, drug alone (ACHN [18]) [nM]	GI50, drug alone (SN12C [19]) [nM]	GI50, drug alone (A498 [20]) [nM]	GI50, drug alone (786-O [21]) [nM]	GI50, drug alone (769-P [22]) [nM]	GI50, drug alone (UO-31 [23]) [nM]	GI50, drug alone (CAKI-1 [24]) [nM]
C=CC(=O)Nc1cccc(Oc2nc(Nc3ccc(N4CCN(C)CC4)cc3)ncc2Cl)c1 [WZ3146]	2.07	2.34	2.85	3.49	2.27	2.71	3.76	2.62	0.0399	0.0569	0.0769	0.452	0.046	0.146	0.0177	0.0135	504	496	2340	9890	1450	1900	2600	958
C=CC(=O)Nc1cccc(Oc2nc(Nc3ccc(N4CCN(C)CC4)cc3OC)ncc2Cl)c1 [WZ4002]	2.42	2.38	2.87	4.01	2.59	2.97	3.99	2.96	0.0574	0.0645	0.151	0.796	0.547	0.576	0.0165	0.385	1190	845	4510	> 10000	> 10000	> 10000	8030	3380
C=CC(=O)Nc1cccc(Sc2nc(Nc3ccc(N4CCN(C)CC4)cc3)ncc2Cl)c1 [WZ8040]	2.42	2.45	2.85	3.77	2.46	2.81	3.39	2.51	0.024	0.0112	0.00541	0.282	0.00441	0.0235	0.0196	0.00227	2090	1280	4060	9250	2910	2960	8210	2310
